The values that follow come from patent US11484543B2, “Compositions and methods for diagnosing and treating diseases and disorders associated with mutant KCNJ5” (The Rockefeller University, priority 2017, dated 2022).

The structures appear in SMILES notation.

This assay deals with T1, KCNJ3/KCNJ5^WT (Homo sapiens, UniProt P48544).
T1 construct: GFP; expressed in transfected cells; host or cells: HEK293T (American Type Culture Collection), transient co-transfection
T1 sequence (P48544 1-419): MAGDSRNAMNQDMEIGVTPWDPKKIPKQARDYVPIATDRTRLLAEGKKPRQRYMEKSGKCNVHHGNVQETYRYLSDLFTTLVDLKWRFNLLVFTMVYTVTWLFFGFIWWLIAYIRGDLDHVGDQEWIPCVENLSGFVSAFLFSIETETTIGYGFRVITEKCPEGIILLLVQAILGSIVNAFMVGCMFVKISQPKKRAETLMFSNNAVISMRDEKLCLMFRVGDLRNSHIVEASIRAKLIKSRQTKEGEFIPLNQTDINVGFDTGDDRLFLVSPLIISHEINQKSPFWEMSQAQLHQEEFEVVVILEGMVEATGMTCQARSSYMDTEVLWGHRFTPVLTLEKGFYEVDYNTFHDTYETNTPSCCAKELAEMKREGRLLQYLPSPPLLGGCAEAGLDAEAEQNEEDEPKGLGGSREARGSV
T1 sequence (P48549 1-501 partner): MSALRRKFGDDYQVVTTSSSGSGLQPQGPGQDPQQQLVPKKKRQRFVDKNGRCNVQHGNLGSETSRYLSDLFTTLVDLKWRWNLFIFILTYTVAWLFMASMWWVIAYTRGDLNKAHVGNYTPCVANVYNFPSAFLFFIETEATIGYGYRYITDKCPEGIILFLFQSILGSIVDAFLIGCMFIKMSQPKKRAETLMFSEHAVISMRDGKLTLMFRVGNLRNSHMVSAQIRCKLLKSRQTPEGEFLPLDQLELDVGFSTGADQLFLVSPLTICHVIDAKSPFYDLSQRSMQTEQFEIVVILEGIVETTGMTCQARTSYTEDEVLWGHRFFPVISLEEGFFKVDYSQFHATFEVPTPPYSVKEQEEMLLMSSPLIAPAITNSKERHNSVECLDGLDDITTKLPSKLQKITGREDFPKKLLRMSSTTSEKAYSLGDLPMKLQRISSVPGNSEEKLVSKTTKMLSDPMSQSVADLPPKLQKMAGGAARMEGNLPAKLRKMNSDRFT
Kind of assay: Perforated whole-cell patch clamp, KCNJ3/KCNJ5^WT heterotetramers in HEK293T cells. The assay is classed as cell-based. The note with it: 20 μM, 10 minutes after addition. How it is done: HEK293T cells (American Type Culture Collection) were used for transient expression of GFP-tagged KCNJ5 or KCNJ3. The cells were grown in Dulbecco's modified Eagle medium (DMEM; Invitrogen) supplemented with 10% FBS (Invitrogen) in 5% CO2 and 95% air at 37° C. Cells were grown to 50-70% confluence for transfection, and the corresponding cDNAs (Choi et al., 2011, Science 331:768-772) were simultaneously applied to the cells using TurboFect transfection reagent according to the manufacturer's protocol (Fermentas). […]
Within 24 hr after transfection, the cells were treated with trypsin-containing medium (TrypLE Express) (Gibco) for 10 minutes to detach the cells. […] Fluorescence signal (an indication of positive transfection) was detected with an intensified video imaging system including a SIT 68 camera (Long Island Industries). […] After forming a high resistance seal (>2 GΩ), the membrane capacitance was monitored until the whole-cell patch configuration was formed. The cell membrane capacitance was measured and compensated. The K/cation currents were measured from −80 mV to 20 mV with 20 mV steps by an Axon 200A patch-clamp amplifier. The currents were low-pass filtered at 1 KHz and digitized by an Axon interface (Digidata 1200) and were analyzed using the pClamp software system 9 (Axon). […]
(In general: In patch-clamp work, channel activity is measured electrically.)

For the compound `CC[C@H]1OC(=O)[C@H](C)[C@@H](O[C@H]2C[C@@](C)(OC)[C@@H](O)[C@H](C)O2)[C@H](C)[C@@H](O[C@@H]2O[C@H](C)C[C@H](N(C)C)[C@H]2O)[C@](C)(O)C[C@@H](C)/C(=N\OCOCCOC)[C@H](C)[C@@H](O)[C@]1(C)O` [Roxithromycin, roxithromycin], the “inhibition of potassium currents in KCNJ3/KCNJ5^WT channels” value is “no inhibition”.
